{
  "source": "patent US8592413B2",
  "about": "“Therapeutic substituted cyclopentanes” (Allergan, Inc., priority 2008, dated 2013)",
  "key": {"EP2 [1]": {"biological_target": "T1, EP2 (Homo sapiens, UniProt P43116)", "T1 sequence (P43116 whole entry)": "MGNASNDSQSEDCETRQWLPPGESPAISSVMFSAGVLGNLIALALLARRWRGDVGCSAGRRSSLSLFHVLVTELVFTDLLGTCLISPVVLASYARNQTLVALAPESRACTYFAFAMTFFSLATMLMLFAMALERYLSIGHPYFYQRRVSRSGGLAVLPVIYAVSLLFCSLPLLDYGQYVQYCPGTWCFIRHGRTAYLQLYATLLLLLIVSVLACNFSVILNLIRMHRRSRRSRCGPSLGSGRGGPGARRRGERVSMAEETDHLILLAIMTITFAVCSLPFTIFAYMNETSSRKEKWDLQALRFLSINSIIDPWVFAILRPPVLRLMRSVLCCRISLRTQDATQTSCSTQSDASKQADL", "assay": "EP2 Ki (binding)", "excerpt": "(§1) US 2007/0129552, incorporated by reference herein, describes the methods used to obtain the in vitro data in the table below."}, "hFP": {"biological_target": "hFP (Homo sapiens, UniProt P43088)", "sequence (P43088 whole entry)": "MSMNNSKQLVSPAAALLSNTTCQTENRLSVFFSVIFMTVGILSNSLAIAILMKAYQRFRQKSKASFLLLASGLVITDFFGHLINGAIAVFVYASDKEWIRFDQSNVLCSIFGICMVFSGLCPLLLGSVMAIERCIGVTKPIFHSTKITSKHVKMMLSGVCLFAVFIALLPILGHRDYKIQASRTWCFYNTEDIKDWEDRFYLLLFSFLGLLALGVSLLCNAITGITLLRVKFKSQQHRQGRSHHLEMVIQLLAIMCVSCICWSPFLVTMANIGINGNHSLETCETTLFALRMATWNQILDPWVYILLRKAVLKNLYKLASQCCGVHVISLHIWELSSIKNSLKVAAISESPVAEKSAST", "assay": "Other receptors: hFP EC50", "format": "cell-based", "excerpt": "as §1"}, "EP4 [2]": {"biological_target": "T2, EP4 (Homo sapiens, UniProt P35408)", "T2 sequence (P35408 whole entry)": "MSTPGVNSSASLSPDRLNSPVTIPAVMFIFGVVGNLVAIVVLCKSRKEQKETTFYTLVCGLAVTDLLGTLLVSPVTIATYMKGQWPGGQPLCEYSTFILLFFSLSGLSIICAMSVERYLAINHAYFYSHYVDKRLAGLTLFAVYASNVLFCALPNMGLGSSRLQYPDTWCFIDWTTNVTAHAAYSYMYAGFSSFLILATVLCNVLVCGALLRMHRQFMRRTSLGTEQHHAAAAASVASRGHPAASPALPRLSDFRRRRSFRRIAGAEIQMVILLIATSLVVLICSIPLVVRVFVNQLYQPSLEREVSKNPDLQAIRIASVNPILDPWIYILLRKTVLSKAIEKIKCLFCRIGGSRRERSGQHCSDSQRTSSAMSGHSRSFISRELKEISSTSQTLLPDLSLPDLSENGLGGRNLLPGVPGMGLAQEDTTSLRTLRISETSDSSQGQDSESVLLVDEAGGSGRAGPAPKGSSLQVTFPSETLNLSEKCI", "assay": "EP4 KI (binding)", "excerpt": "as §1"}, "hDP": {"biological_target": "T3, hDP (Homo sapiens, UniProt Q13258)", "T3 sequence (Q13258 1-359)": "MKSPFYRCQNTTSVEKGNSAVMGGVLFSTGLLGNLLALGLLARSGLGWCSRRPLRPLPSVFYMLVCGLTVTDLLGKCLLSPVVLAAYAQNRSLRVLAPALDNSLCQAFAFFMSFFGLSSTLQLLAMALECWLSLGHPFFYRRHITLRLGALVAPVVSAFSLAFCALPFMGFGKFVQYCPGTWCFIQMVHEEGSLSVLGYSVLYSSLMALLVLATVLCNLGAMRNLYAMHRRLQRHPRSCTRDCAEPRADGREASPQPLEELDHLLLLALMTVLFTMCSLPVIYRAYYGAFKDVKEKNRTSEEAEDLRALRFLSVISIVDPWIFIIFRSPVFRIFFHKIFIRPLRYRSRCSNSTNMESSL", "assay": "Other receptors: hDP EC50", "format": "cell-based", "excerpt": "as §1"}, "EP4 [3]": {"biological_target": "T2, EP4", "assay": "EP4 flipr", "format": "cell-based", "excerpt": "as §1"}, "hTP": {"biological_target": "T4, hTP (Homo sapiens, UniProt P21731)", "T4 sequence (P21731 1-343)": "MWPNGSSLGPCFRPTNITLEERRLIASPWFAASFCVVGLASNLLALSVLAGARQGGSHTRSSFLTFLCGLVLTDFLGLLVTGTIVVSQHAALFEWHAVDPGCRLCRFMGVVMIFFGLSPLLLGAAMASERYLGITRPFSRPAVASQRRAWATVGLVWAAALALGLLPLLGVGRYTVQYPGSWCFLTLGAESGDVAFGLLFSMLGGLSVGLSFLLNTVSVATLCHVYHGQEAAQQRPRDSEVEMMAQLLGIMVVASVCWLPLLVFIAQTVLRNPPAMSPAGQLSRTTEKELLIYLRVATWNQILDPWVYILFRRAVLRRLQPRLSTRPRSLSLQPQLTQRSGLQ", "assay": "Other receptors: hTP EC50", "format": "cell-based", "excerpt": "as §1"}, "hEP3A": {"biological_target": "T5, hEP3A (Homo sapiens, UniProt P43115)", "T5 sequence (P43115 1-390)": "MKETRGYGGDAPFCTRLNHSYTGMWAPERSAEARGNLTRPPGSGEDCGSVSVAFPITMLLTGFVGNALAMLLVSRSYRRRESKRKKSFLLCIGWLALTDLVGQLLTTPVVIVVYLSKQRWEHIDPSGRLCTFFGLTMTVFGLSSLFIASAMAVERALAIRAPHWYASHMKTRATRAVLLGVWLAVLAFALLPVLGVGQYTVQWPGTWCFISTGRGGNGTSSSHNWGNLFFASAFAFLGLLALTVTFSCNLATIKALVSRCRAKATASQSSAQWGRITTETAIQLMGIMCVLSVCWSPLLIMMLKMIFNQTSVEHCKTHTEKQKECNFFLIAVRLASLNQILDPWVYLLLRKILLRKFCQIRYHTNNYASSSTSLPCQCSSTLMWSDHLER", "assay": "Other receptors: hEP3A EC50", "format": "cell-based", "excerpt": "as §1"}, "hEP1": {"biological_target": "T6, hEP1 (Homo sapiens, UniProt P34995)", "T6 sequence (P34995 1-402)": "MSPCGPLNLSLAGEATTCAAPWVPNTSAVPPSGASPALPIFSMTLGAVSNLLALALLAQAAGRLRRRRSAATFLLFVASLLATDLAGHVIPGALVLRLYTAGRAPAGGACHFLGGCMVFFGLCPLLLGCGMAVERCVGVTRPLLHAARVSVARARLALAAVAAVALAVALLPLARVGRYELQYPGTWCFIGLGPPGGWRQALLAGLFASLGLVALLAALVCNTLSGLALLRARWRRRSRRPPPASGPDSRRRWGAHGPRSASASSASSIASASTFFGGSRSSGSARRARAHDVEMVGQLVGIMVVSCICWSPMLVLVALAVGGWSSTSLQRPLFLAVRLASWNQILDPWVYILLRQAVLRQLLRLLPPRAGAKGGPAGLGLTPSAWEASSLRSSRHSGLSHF", "assay": "Other receptors: hEP1 EC50", "format": "cell-based", "excerpt": "as §1"}, "hIP": {"biological_target": "hIP (Homo sapiens, UniProt P43119)", "sequence (P43119 whole entry)": "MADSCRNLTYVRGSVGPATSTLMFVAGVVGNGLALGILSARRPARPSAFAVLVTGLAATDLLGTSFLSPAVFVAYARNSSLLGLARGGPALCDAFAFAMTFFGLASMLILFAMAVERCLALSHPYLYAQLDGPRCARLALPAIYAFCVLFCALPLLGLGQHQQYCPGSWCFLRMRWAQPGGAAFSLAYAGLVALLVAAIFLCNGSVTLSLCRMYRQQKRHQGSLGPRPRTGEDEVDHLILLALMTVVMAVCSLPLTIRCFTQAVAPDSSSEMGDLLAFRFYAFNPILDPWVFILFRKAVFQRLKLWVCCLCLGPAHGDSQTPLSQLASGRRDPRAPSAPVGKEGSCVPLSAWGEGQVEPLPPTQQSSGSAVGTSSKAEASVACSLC", "assay": "Other receptors: hIP EC50", "format": "cell-based", "excerpt": "as §1"}, "EP2 [4]": {"biological_target": "T1, EP2", "assay": "EP2 cAMP", "format": "cell-based", "excerpt": "as §1"}, "EP2 [5]": {"biological_target": "T1, EP2", "assay": "EP2 flipr", "format": "cell-based", "excerpt": "as §1"}},
  "note": "pEC50, pKi: −log10 of the molar value.",
  "data": [
    {"molecule": "O=C(O)CCC/C=C\\C[C@@H]1[C@@H](COCc2cccc(C(F)(F)F)c2)[C@H](O)C[C@H]1Cl", "values": [
      {"measurement": "pKi", "setting": "EP2 [1]", "value": 6.67},
      {"measurement": "EC50", "setting": "hFP", "value": 22500, "unit": "nM"},
      {"measurement": "pKi", "setting": "EP4 [2]", "value": 5.50},
      {"measurement": "EC50", "setting": "hDP", "value": "> 10000", "unit": "nM"},
      {"measurement": "pEC50", "setting": "EP4 [3]", "value": 5.63},
      {"measurement": "EC50", "setting": "hTP", "value": 11, "unit": "nM"},
      {"measurement": "EC50", "setting": "hEP3A", "value": 88, "unit": "nM"},
      {"measurement": "EC50", "setting": "hEP1", "value": 97, "unit": "nM"},
      {"measurement": "EC50", "setting": "hIP", "value": 7, "unit": "nM"},
      {"measurement": "pEC50", "setting": "EP2 [4]", "value": 8.30},
      {"measurement": "pEC50", "setting": "EP2 [5]", "value": 6.71}
    ]},
    {"molecule": "CCc1cccc(COC[C@@H]2[C@@H](CCCc3ccc(C(=O)O)s3)[C@H](Cl)C[C@H]2O)c1", "values": [
      {"measurement": "pKi", "setting": "EP2 [1]", "value": 8.52},
      {"measurement": "pKi", "setting": "EP4 [2]", "value": 6.22},
      {"measurement": "EC50", "setting": "hDP", "value": "> 10000", "unit": "nM"},
      {"measurement": "pEC50", "setting": "EP4 [3]", "value": 5.18},
      {"measurement": "EC50", "setting": "hTP", "value": 2520, "unit": "nM"},
      {"measurement": "pEC50", "setting": "EP2 [4]", "value": 9.30},
      {"measurement": "pEC50", "setting": "EP2 [5]", "value": 6.59}
    ]},
    {"molecule": "O=C(O)c1ccc(CCC[C@@H]2[C@@H](CCCc3cc(Cl)cc(Cl)c3)[C@H](O)C[C@H]2Cl)s1", "values": [
      {"measurement": "pKi", "setting": "EP2 [1]", "value": 9.22},
      {"measurement": "pKi", "setting": "EP4 [2]", "value": 6.00},
      {"measurement": "pEC50", "setting": "EP4 [3]", "value": 5.00},
      {"measurement": "EC50", "setting": "hTP", "value": 7110, "unit": "nM"},
      {"measurement": "EC50", "setting": "hEP3A", "value": 8060, "unit": "nM"},
      {"measurement": "pEC50", "setting": "EP2 [4]", "value": 9.00},
      {"measurement": "pEC50", "setting": "EP2 [5]", "value": 5.00}
    ]},
    {"molecule": "CCc1cccc(CCC[C@@H]2[C@@H](CCCc3ccc(C(=O)O)s3)[C@H](Cl)C[C@H]2O)c1", "values": [
      {"measurement": "pKi", "setting": "EP2 [1]", "value": 8.40},
      {"measurement": "pKi", "setting": "EP4 [2]", "value": 5.73},
      {"measurement": "pEC50", "setting": "EP4 [3]", "value": "< 5.00"},
      {"measurement": "pEC50", "setting": "EP2 [4]", "value": 9.05},
      {"measurement": "pEC50", "setting": "EP2 [5]", "value": 4.86}
    ]},
    {"molecule": "O=C(O)c1ccc(CCC[C@@H]2[C@@H](CCCc3cccc(C(F)(F)F)c3)[C@H](O)C[C@H]2Cl)s1", "values": [
      {"measurement": "pKi", "setting": "EP2 [1]", "value": 9.30},
      {"measurement": "pKi", "setting": "EP4 [2]", "value": 6.13},
      {"measurement": "EC50", "setting": "hEP1", "value": 4260, "unit": "nM"},
      {"measurement": "pEC50", "setting": "EP2 [4]", "value": 9.52},
      {"measurement": "pEC50", "setting": "EP2 [5]", "value": 5.60}
    ]},
    {"molecule": "O=C(O)c1ccc(CCC[C@@H]2[C@@H](C=C=Cc3cccc(C(F)(F)F)c3)[C@H](O)C[C@H]2Cl)s1", "values": [
      {"measurement": "pKi", "setting": "EP2 [1]", "value": 7.96},
      {"measurement": "pEC50", "setting": "EP2 [4]", "value": 8.77},
      {"measurement": "pEC50", "setting": "EP2 [5]", "value": 5.49}
    ]},
    {"molecule": "O=C(O)c1ccc(CCC[C@@H]2[C@@H](CCCc3ccccc3)[C@H](O)C[C@H]2Cl)s1", "values": [
      {"measurement": "pKi", "setting": "EP2 [1]", "value": 8.52},
      {"measurement": "pKi", "setting": "EP4 [2]", "value": 5.67},
      {"measurement": "EC50", "setting": "hDP", "value": 6780, "unit": "nM"},
      {"measurement": "pEC50", "setting": "EP4 [3]", "value": 5.30},
      {"measurement": "pEC50", "setting": "EP2 [4]", "value": 9.22}
    ]},
    {"molecule": "O=C(O)c1ccc(CCC[C@@H]2[C@@H](C=C=Cc3ccccc3)[C@H](O)C[C@H]2Cl)s1", "values": [
      {"measurement": "pKi", "setting": "EP2 [1]", "value": 8.22},
      {"measurement": "pKi", "setting": "EP4 [2]", "value": 6.15},
      {"measurement": "EC50", "setting": "hDP", "value": 10200, "unit": "nM"},
      {"measurement": "pEC50", "setting": "EP4 [3]", "value": 4.96},
      {"measurement": "pEC50", "setting": "EP2 [4]", "value": 8.77}
    ]},
    {"molecule": "CN(Cc1ccccc1)C[C@@H]1[C@@H](CCCc2ccc(C(=O)O)s2)[C@H](Cl)C[C@H]1O", "values": [
      {"measurement": "pKi", "setting": "EP2 [1]", "value": 7.62},
      {"measurement": "EC50", "setting": "hDP", "value": 5620, "unit": "nM"},
      {"measurement": "pEC50", "setting": "EP2 [4]", "value": 8.44}
    ]},
    {"molecule": "O=C(O)c1ccc(CCC[C@@H]2[C@@H](CNCc3ccccc3)[C@H](O)C[C@H]2Cl)s1", "values": [
      {"measurement": "pKi", "setting": "EP2 [1]", "value": 6.84},
      {"measurement": "pEC50", "setting": "EP2 [4]", "value": 8.22}
    ]}
  ]
}
